Activity calls are given as the source filed them.

Data set [1] concerns Mus musculus. As to the kind of experiment: Increase in CYP7A1 gene expression in LDL receptor knockout C57BL/6 mouse liver at 15 mg/kg administered with Western diet. Format: functional.
Data set [2] has as its system Mus musculus. As to the kind of experiment: Reduction in atherosclerotic lesion size in LDL receptor knockout C57BL/6 mouse thoracic aorta at 15 mg/kg administered with Western diet after 8 weeks by oil Red-O staining. Format: functional. Also noted: scale not given: the % may be the effect or the level left.
Data set [3] relates to Mus musculus. As to the kind of experiment: Decrease in total cholesterol level in LDL receptor knockout C57BL/6 mouse plasma at 15 mg/kg administered with Western diet after 8 weeks. The data set is classed as functional. On the set-up: scale not given: the % may be the effect or the level left.
The target of data set [4] is T1, Androgen receptor (Homo sapiens) (UniProt P10275).
T1 sequence (whole entry): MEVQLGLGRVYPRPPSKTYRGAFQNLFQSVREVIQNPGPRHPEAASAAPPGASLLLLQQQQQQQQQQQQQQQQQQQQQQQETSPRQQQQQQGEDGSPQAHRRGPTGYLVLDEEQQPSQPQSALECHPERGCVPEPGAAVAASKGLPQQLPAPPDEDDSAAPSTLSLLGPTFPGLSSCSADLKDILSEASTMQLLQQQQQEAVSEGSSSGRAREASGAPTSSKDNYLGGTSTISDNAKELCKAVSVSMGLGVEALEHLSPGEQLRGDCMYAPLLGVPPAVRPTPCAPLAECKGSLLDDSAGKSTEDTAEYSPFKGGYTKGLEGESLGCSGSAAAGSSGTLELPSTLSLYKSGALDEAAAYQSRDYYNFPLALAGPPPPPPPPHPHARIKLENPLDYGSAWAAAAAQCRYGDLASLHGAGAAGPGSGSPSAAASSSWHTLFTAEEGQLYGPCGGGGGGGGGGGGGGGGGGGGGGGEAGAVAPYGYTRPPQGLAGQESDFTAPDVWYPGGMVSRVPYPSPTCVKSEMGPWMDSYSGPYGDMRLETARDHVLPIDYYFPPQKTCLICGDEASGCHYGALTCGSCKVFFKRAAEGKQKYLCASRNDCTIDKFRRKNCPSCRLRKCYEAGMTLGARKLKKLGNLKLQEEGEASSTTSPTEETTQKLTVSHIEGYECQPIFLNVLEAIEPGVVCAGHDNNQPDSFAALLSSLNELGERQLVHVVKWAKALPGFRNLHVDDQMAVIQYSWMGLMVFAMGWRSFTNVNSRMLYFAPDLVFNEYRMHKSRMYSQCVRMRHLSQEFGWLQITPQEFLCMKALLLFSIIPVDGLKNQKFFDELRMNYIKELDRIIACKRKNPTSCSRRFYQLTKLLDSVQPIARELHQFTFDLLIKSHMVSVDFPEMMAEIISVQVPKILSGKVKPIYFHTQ
The data set can be described thus: (§1) Displacement of radiolabeled mibolerone from human androgen receptor by filter paper assay.

In data set [5] the test system is Syrian golden hamster. The data set can be described thus: Induction of FAS gene expression in golden Syrian hamster liver at 100 mg/kg administered with chow diet for 7 days measured after 2 hrs of final dose by real time PCR. On the set-up: dose 100 mg/kg. The data set is classed as functional, organism-based. Particulars: Mesocricetus auratus. (Quantitative PCR measures a nucleic acid by following its amplification.)

Data set [6] can be described thus: Half life in C57 mouse at 1 mg/kg, iv. The data set is classed as ADME, organism-based. On the set-up: dose 1 mg/kg, route intravenous. Conditions: in vivo.
In data set [7] the target is T2, Androgen receptor (Homo sapiens, UniProt P10275).
T2 sequence (P10275 whole entry): T1 sequence (whole entry)
The data set is described as §1.

As usually defined, the half-life is the time needed for the level to fall by half in the phase considered. For `Fc1ccc(-c2c3cccc(C(F)(F)F)c3nn2Cc2ccccc2F)cc1`, in data set [1], the “fold change (FC)” value turned out to be 4. For the same molecule, the Activity in data set [2] is listed as 28%; in data set [3] it was 10%. Besides, the result in data set [4] and in data set [5] was inactive. The half-life in data set [6] was 7.9 h.
As a reminder, the IC50 is the point on the concentration scale where inhibition reaches its midpoint. With `Fc1ccc(-c2c3cccc(C(F)(F)F)c3nn2Cc2ccc(F)cc2Cl)cc1` [LXR-623], in data set [7], the IC50 was determined as 2.3 µM.

(Values after ChEMBL document CHEMBL1152299, “Indazole-based liver X receptor (LXR) modulators with maintained atherosclerotic lesion reduction activity but diminished stimulation of hepatic triglyceride synthesis” (J Med Chem, 2008).)
